Molecules are shown by their SMILES.

We go through 24 molecules from US9174980B2, “Heterocyclic compounds as inhibitors of leukotriene production” (Boehringer Ingelheim International GmbH, priority 2012, dated 2015).

Test [1] deals with synthesis of LTB4 in human whole blood. Kind of test: Human whole blood assay (calcimycin-stimulated LTB4 synthesis). As to conditions: Homo sapiens; read-out: Human Whole Blood LTB4 Assay for FLAP (IC50 nM). The class given is cell-based. The procedure: Compounds are additionally tested in a human whole blood assay to determine their ability to inhibit the synthesis of LTB4 in a cellular system. Compounds are combined with heparinized human whole blood and incubated for 15 minutes at 37° C. Calcimycin (20 μM final, prepared in phosphate-buffered saline, pH 7.4) is then added and the mixture is incubated for another 30 minutes at 37° C. The samples are centrifuged for 5 min at low speed (1500×g) and the plasma layer is removed. Plasma LTB4 concentrations are then measured using an antibody-based homogenous time-resolved fluorescence method (CisBio, Bedford, Mass.).

The target in test [2] is T1, recombinant human FLAP protein (Homo sapiens, UniProt P20292).
T1 construct: made in house; host or cells: Sf9 insect cells (membrane fraction, 100,000 x g pellet)
T1 sequence (P20292 1-161): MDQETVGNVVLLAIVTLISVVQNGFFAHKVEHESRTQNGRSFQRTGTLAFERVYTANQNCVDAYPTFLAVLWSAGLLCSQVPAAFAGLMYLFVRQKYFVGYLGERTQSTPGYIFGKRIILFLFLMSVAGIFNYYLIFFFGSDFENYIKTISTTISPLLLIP
Kind of test: FLAP binding assay (Scintillation Proximity Assay, displacement of [125I]L-691,831). As to conditions: read-out: Human FLAP SPA Binding (IC50 nM). The procedure: Compounds are assessed for the ability to bind to FLAP in a binding assay that measures compound-specific displacement of an iodinated (^125I) FLAP inhibitor via a Scintillation Proximity Assay format (adapted from S. Charleson et al., Mol. Pharmacol., 1992, 41, 873-879).
Cell pellets produced from sf9 insect cells expressing recombinant human FLAP protein are resuspended in buffer A [15 mM Tris-HCl (pH 7.5), 2 mM MgCl2, 0.3 mM EDTA, 1 mM PMSF]. The cells are lysed with a Dounce homogenizer and the material is centrifuged at 10,000×g for 10 minutes. The supernatant is then collected and centrifuged at 100,000×g for 60 minutes. To prepare membrane protein for an assay, an aliquot of the 100,000×g pellet is resuspended in 1 ml of buffer A, Dounce homogenized, and finally subjected to polytron mixing (30 seconds). Membrane protein (25 μl, 5 μg) is mixed with WGA SPA beads (Amersham) and stirred for 1 h. To an assay plate (Perkin Elmer FlexiPlate) is added 25 μl of test compound prepared in Binding buffer [100 mM Tris (pH 7.5), 140 mM NaCl, 5% glycerol, 2 mM EDTA, 0.5 mM TCEP, 0.05% Tween 20], 25 μl of [^125I]L-691,831 (an iodinated analog of MK-591, Charleson et al. Mol. Pharmacol., 41, 873-879, 1992) and finally 50 μl of the bead/protein mixture. (final concentrations: beads, 200 μg/well; protein, 5 μg/well; [^125I] probe, 0.08 nM/well (17 nCi/well). The plates are shaken for 2 h before reading on a Microbeta plate reader. Non-specific binding is determined by the addition of 10 μM cold L-691,831 compound.
(In general: SPA uses beads or plates that emit light when radiolabelled molecules are held near them.)

Regarding `COC(=O)c1cc(-c2ccc(F)cc2)c(C2(c3ccc(-c4cnc(N)nc4)cc3)CCC2)[nH]1` [Example 166, methyl 5-{1-[4-(2-aminopyrimidin-5-yl)phenyl]cyclobutyl}-4-(4-fluorophenyl)-1H-pyrrole-2-carboxylate], the results for the IC50 in test [1] and in test [2] were 3600 nM and 72 nM, respectively.
With `COC(=O)c1cc(-c2cnn(C)c2)c(C2(c3ccc(-c4cnc(N)nc4)cc3)CCC2)[nH]1` [Example 176, methyl 5-{1-[4-(2-aminopyrimidin-5-yl)phenyl]cyclobutyl}-4-(1-methyl-1H-pyrazol-4-yl)-1H-pyrrole-2-carboxylate], the IC50 (as a rule, the midpoint of a concentration-inhibition curve) was found to be 2900 nM in test [1] and 150 nM in test [2].
In the case of `Cc1ccc(-c2coc(C3(c4ccc(-c5cnc(N)nc5)cc4)CCC3)n2)cn1` [Example 8, 5-(4-{1-[4-(6-methylpyridin-3-yl)-1,3-oxazol-2-yl]cyclobutyl}phenyl)pyrimidin-2-amine], the IC50 in test [1] stood at 410 nM; in test [2] it was 2.8 nM.
Consider `Cc1ccc(-c2cc(C3(c4ccc(-c5cnc(N)nc5)cc4)CCC3)[nH]n2)cn1` [Example 18, 5-(4-{1-[5-(6-methylpyridin-3-yl)-1H-pyrazol-3-yl]cyclobutyl}phenyl)pyrimidin-2-amine], for which the 50% inhibitory concentration (IC50) stood at 680 nM in test [1] and 4 nM in test [2].
As to `Cc1ccc(-c2nnc(C3(c4ccc(-c5cnc(N)nc5)cc4)CCC3)s2)cn1` [Example 131, 5-(4-{1-[5-(6-methylpyridin-3-yl)-1,3,4-thiadiazol-2-yl]cyclobutyl}phenyl)pyrimidin-2-amine], the figures for the IC50 in test [1] and in test [2] were 920 nM and 5.5 nM, respectively.
Consider `CCc1nc(CN(C)C(=O)c2cccc3c(C4(c5ccc(-c6cnc(N)nc6)cc5)CCC4)c[nH]c23)no1` [Example 10, 3-{1-[4-(2-aminopyrimidin-5-yl)phenyl]cyclobutyl}-N-[(5-ethyl-1,2,4-oxadiazol-3-yl)methyl]-N-methyl-1H-indole-7-carboxamide], for which the concentration for half-maximal inhibition (IC50) in test [1] was determined as 340 nM; in test [2] it was 2.4 nM.
As for `CC(C)C(C)(c1ccc(-c2cnc(N)nc2)cc1)c1cn(C)c2ncccc12` (stereo not drawn) [Example 39, 5-{4-[3-methyl-2-(1-methyl-1H-pyrrolo[2,3-b]pyridin-3-yl)butan-2-yl]phenyl}pyrimidin-2-amine], the IC50 in test [1] is 290 nM; in test [2], 3.3 nM.
`CC(C)C(C)(c1ccc(-c2cnc(N)nc2)cc1)c1c[nH]c2cc(C(=O)N(C)CCO)ccc12` (stereo not drawn) [Example 79, 3-{2-[4-(2-aminopyrimidin-5-yl)phenyl]-3-methylbutan-2-yl}-N-(2-hydroxyethyl)-N-methyl-1H-indole-6-carboxamide]: the IC50 in test [1] was 2600 nM; in test [2], 8.5 nM.
As for `CC(C)C(C)(c1ccc(-c2cnc(N)nc2)cc1)c1cn(Cc2ccc(Cl)cc2)c2ncccc12` (stereo not drawn) [Example 34, 5-(4-{2-[1-(4-chlorobenzyl)-1H-pyrrolo[2,3-b]pyridin-3-yl]-3-methylbutan-2-yl}phenyl)pyrimidin-2-amine], the figures for the IC50 in test [1] and in test [2] were 460 nM and 3.4 nM, respectively.
Consider `CC(C)C(C)(c1ccc(-c2cnc(N)nc2)cc1)c1cn(Cc2ccccn2)c2cccc(F)c12` (stereo not drawn) [Example 40, 5-(4-{2-[4-fluoro-1-(pyridin-2-ylmethyl)-1H-indol-3-yl]-3-methylbutan-2-yl}phenyl)pyrimidin-2-amine], for which the IC50 was 540 nM in test [1] and 2.6 nM in test [2].
`Cc1nnc(CN(C)C(=O)c2cccc3c(C4(c5ccc(-c6cnc(N)nc6)cc5)CCC4)c[nH]c23)o1` [Example 11, 3-{1-[4-(2-aminopyrimidin-5-yl)phenyl]cyclobutyl}-N-methyl-N-[(5-methyl-1,3,4-oxadiazol-2-yl)methyl]-1H-indole-7-carboxamide]: the IC50 worked out at 230 nM in test [1] and 3.3 nM in test [2].
Regarding `CC(C)C(C)(c1ccc(-c2cnc(N)nc2)cc1)c1c[nH]c2cc(S(C)(=O)=O)ccc12` (stereo not drawn) [Example 85, 5-(4-{3-methyl-2-[6-(methylsulfonyl)-1H-indol-3-yl]butan-2-yl}phenyl)pyrimidin-2-amine], the half-maximal inhibitory concentration (IC50) worked out at 300 nM in test [1] and 0.97 nM in test [2].
Turning to `Nc1ncc(-c2ccc(C3(c4nc5ccccc5[nH]4)CCC3)cc2)cn1` [Example 139, 5-{4-[1-(1H-benzimidazol-2-yl)cyclobutyl]phenyl}pyrimidin-2-amine], the IC50 in test [1] is over 5000 nM; in test [2], 27 nM.
For the molecule `Cc1cc(CN(C)C(=O)c2cccc3c(C4(c5ccc(-c6cnc(N)nc6)cc5)CCC4)c[nH]c23)[nH]n1` [Example 13, 3-{1-[4-(2-aminopyrimidin-5-yl)phenyl]cyclobutyl}-N-methyl-N-[(3-methyl-1H-pyrazol-5-yl)methyl]-1H-indole-7-carboxamide], the IC50 in test [1] worked out at 320 nM; in test [2] it was 1.4 nM.
Consider `CC(C)C(C)(c1ccc(-c2cnc(N)nc2)cc1)c1c[nH]c2cccc(F)c12` (stereo not drawn) [Example 58, 5-{4-[2-(4-fluoro-1H-indol-3-yl)-3-methylbutan-2-yl]phenyl}pyrimidin-2-amine], for which the IC50 was determined as 69 nM in test [1] and 1.1 nM in test [2].
On the same counts, the results for `COC(=O)c1cc(Br)c(C2(c3ccc(-c4cnc(N)nc4)cc3)CCC2)n1C` [Example 177, methyl 5-{1-[4-(2-aminopyrimidin-5-yl)phenyl]cyclobutyl}-4-bromo-1-methyl-1H-pyrrole-2-carboxylate] are 1800 nM and 42 nM.
With `COC(c1ccc(-c2cnc(N)nc2)cc1)(c1nn(C)c2ccccc12)C(C)(C)C` (stereo not drawn) [Example 53, 5-[4-[1-methoxy-2,2-dimethyl-1-(1-methylindazol-3-yl)propyl]phenyl]pyrimidin-2-amine], the values for the IC50 in test [1] and in test [2] were over 5000 nM and 400 nM, respectively.
On to `Nc1ncc(-c2ccc(C3(c4cn(Cc5ccccn5)c5ccccc45)CCOCC3)cc2)cn1` [Example 35, 5-(4-{4-[1-(pyridin-2-ylmethyl)-1H-indol-3-yl]tetrahydro-2H-pyran-4-yl}phenyl)pyrimidin-2-amine], for which the figures for the IC50 in test [1] and in test [2] were over 5000 nM and 150 nM, respectively.
On to `CC(C)C(C)(c1ccc(OCc2ccccn2)cc1)c1cn(C)c2cc(C(N)=O)ccc12` (stereo not drawn) [Example 38, 3-[1,2-dimethyl-1-[4-(2-pyridylmethoxy)phenyl]propyl]-1-methyl-indole-6-carboxamide], for which the IC50 in test [1] stood at 240 nM; in test [2], 1.4 nM.
The corresponding values for `COc1cncc(-c2ccc(C(c3ncc(-c4ccc(CO)nc4)s3)C(C)C)cc2)c1` (stereo not drawn) [Example 25, [5-(2-{1-[4-(5-methoxypyridin-3-yl)phenyl]-2-methylpropyl}-1,3-thiazol-5-yl)pyridin-2-yl]methanol] are over 5000 nM and 36 nM.
The corresponding values for `Nc1ncc(-c2ccc(C3(c4cn(CCO)c5ccccc45)CCC3)cc2)cn1` [Example 111, 2-(3-{1-[4-(2-aminopyrimidin-5-yl)phenyl]cyclobutyl}-1H-indol-1-yl)ethanol] are over 5000 nM and 1.5 nM.
In the case of `Cc1nccc2c(C3(c4ccc(-c5cnc(N)nc5)cc4)CCC3)c[nH]c12` [Example 152, 5-{4-[1-(7-methyl-1H-pyrrolo[2,3-c]pyridin-3-yl)cyclobutyl]phenyl}pyrimidin-2-amine], the IC50 in test [1] worked out at 55 nM; in test [2] it was 1.7 nM.
The corresponding values for `CN(CCO)C(=O)Cn1cc(C2(c3ccc(-c4cnc(N)nc4)cc3)CCC2)c2ccccc21` [Example 132, 2-(3-{1-[4-(2-aminopyrimidin-5-yl)phenyl]cyclobutyl}-1H-indol-1-yl)-N-(2-hydroxyethyl)-N-methylacetamide] are over 5000 nM and 7.2 nM.
As for `CN(C)C(=O)Cn1cc(-c2cnc(C(C)(c3ccc(-c4cnc(N)nc4)cc3)C3CC3)s2)cn1` (stereo not drawn) [Example 170, 2-[4-[2-[1-[4-(2-aminopyrimidin-5-yl)phenyl]-1-cyclopropyl-ethyl]thiazol-5-yl]pyrazol-1-yl]-N,N-dimethyl-acetamide], the IC50 in test [1] was 120 nM; in test [2], 10 nM.
